The record followed here is patent publication US8048918B2, “Treatment of hyperproliferative diseases” (Vampex Limited, priority 2000, dated 2011).

Assay [1] deals with hyperproliferative psoriatic keratinocytes. The assay is described as follows: proliferation assay (Coulter cell counter) on hyperproliferative psoriatic keratinocytes. The assay is classed as cell-based, human. An excerpt: Biopsy samples are obtained from psoriatic patients. Skin from patients with chronic plaque psoriasis are obtained with informed consent. Ethical approval has been obtained previously from The South Sheffield Regional Ethics Committee. Biopsies are all be taken from the lower back in psoriasis patients aged 40 to 60.
Remove subcutaneous tissue and some of the dermis with scissors, dissect skin into 1×2 cm pieces with a scalpel. Rinse the tissue 2-5 times in PBSA. Float skin samples on 0.6% Trypsin in PBSA (pH 7.4) ON at 4° C. (or alternatively for 20-30 min at 37° C.)
The separation of the epidermis is carefully monitored. When the first detachment of the epidermis is visible at the cut edges of the skin sample place the pieces (dermis-side down) in 100 mm Petri dishes. Irrigate with 5 ml of complete culture medium (incl. serum). Peel off the epidermis with forceps and collect it in a 50 ml centrifuge tube containing 20 ml of complete culture medium (KGM). Separate the keratinocytes from the epidermal cells by gently pipetting and sieving through a nylon gauze of 100 μm mesh. Wash the isolated epidermal cells twice in KGM by centrifugation at 100 g for 10 min, and count the total number of cells.
Cells are seeded at 37° C. in KGM medium at a density of 2500 cells/cm^2 in a 25 cm^2 cell culture flask. The medium is replaced every 48 hours and cells are passaged when confluent.
Cell Seeding and Analysis: Purchased secondary cultures or primary cultures (from donor skin) are seeded at 3500 cells/cm^2 in K-SFM 25 cm^2 tissue culture flasks. The medium is changed (5 ml per flask) the day after seeding and every other day thereafter. At 70-80% confluence the cells are subcultured by seeding 3500 cells per well in 24 well cell culture plates, each well containing 500 μl of K-SFM. One well plate is seeded for each treatment. After allowing one day for settling the cells are switched to experimental medium (500 μl per well). Stock solutions of additions are as before. Experimental treatments are as follows:
The medium is replaced every other day. Cells are harvested by trypsinisation. 500 μl Trypsin/EDTA is added to each well to be harvested and then aspirated off. The well plates are incubated for 5-6 min at 37° C. 500 μl PBS is added to the wells and the cells are resuspended. The cell suspension is added to 20 ml Isoton solution in a Coulter counter “Accuvette” and the cells are counted. On each harvest, 3 wells of cells are counted for each treatment and 3 counts were made for each well.
Cell number is calculated as follows: Coulter Counter removes 500 μl of 20 ml sample ( 1/40). Multiply cell count by 40 to obtain cell number in cup, this equals the total number of cells in one well (approximately, as ˜10% taken out for viability test). […]

A further assay has as its system retinoic acid synthesis. The assay is described as follows: RA synthesis in normal human epidermal keratinocytes. The assay is classed as cell-based. The settings on record: Carbenoxolone 6 μM, Disulfiram 15 μM or Citral 10 μM. As for the experimental part: Protocols used are as described in as in Båvik et al., Experimental Cell research 1995:216, p. 358-362. Briefly, subcultures are grown to confluence in KGM. On day of confluence change to keratinocyte differentiation media (1.2 mM Ca^2+, KDM) with 2 μM holo-RBP+/−inhibitors ([…]; […]; 10 μM Citral; 0.2 mM 4-Methylpyrazole; 15 μM Disulfiram; 10 μM Citral; 2 mM 3-Mercaptopropionic acid; or drug vehicle alone). Cells are grown for 4 days, and cells are media are harvested.
The concentration of RA in cells and media is analysed directly by HPLC. Essentially as in “Characterisation of retinol metabolism in cultured human epidermal keratinocytes”, Randolph R. K. and Simon M., J. Biol. Chem. 268:9198-9205, 1993. The concentration of RA in cells is also analysed indirectly by Northern blot analysis of CRABPII mRNA expression in the keratinocytes, essentially as described in Elder et al. Retinoid Induction of CRABPII nRNA in Human Dermal Fibroblasts: Use as a Retinoid Bioassay, J. Investigative Dermatology 106:517-521, 1996.
The above two experiments are repeated, but with the use of normal human epithelial keratinocytes instead of psoriatic human epidermal keratinocytes.

“Also recorded” adds a separate entry of the source. Where no end group is shown, it is not given here.

Turning to `CC1(C)[C@@H](OC(=O)CCC(=O)O)CC[C@]2(C)[C@H]3C(=O)C=C4[C@@H]5C[C@@](C)(C(=O)O)CC[C@]5(C)CC[C@@]4(C)[C@]3(C)CC[C@@H]12` [Carbenoxolone], the “effect on retinol/retinoic acid-induced keratinocyte proliferation (cell numbers)” value in assay [1] (RA synthesis inhibitors (Disulfiram 15 μM, Citral 10 μM, Carbenoxolone 12 μM), 1.2 mM Ca2+, 2 μM ROL, FIG. 10) is recorded as “particularly marked effect”. The retinoic acid synthesis result in the assay on retinoic acid synthesis is recorded as “inhibited”.
Turning to `CC(C)=CCCC(C)=CC=O` [Citral, 3,7-dimethyl-2,6-octadienal], the retinoic acid synthesis entry with retinoic acid synthesis is on record as “inhibited”.
With GRVRLLNNWDVCA, the “effect on RBP-increased proliferation” value in assay [1] (peptides 6 μM, Ca2+ 1.2 mM, RBP 0.6 μM) was “reversed; also recorded: reduces proliferation”.
